pEC50: −log10 of the molar value. Like-named read-outs stand apart in the source and are kept apart here.

The target in data set [1] is T1, THR-α (Homo sapiens, UniProt P10827).
T1 construct: A mixed solution of 4× TRα-LBD or TRβ-LBD and 4× RXRα was prepared
Description: Agonistic activity on THR-α (TRα-LBD/RXRα, biotin-SRC2-2 recruitment, fluorescence ratio 665 nm/615 nm). It counts as biochemical. To be noted: for Agonistic activity for THR-α compared to control compound MGL-3196: in words, versus MGL-3196. The protocol:
(§1) 100× solutions of reference compounds or compounds were prepared with DMSO and then diluted in a 1:3 equal ratio. The gradient dilution of 100× reference compound or compound was further diluted to 4× with 1× reaction buffer and then added to the test plate. A mixed solution of 4× TRα-LBD or TRβ-LBD and 4× RXRα was prepared with 1× reaction buffer and added to the test plate. […] The plate was centrifuged at 1000 rpm for 1 min and then incubated at room temperature and in the dark for 4 h.

For data set [2], the target named is T2, THR-β (Homo sapiens, UniProt P10828).
T2 construct: A mixed solution of 4× TRα-LBD or TRβ-LBD and 4× RXRα was prepared
The data set can be described thus: Agonistic activity on THR-β (TRβ-LBD/RXRα, biotin-SRC2-2 recruitment, fluorescence ratio 665 nm/615 nm). It counts as biochemical. To be noted: for Agonistic activity for THR-β compared to control compound MGL-3196: in words, versus MGL-3196; for Selectivity THR-β/THR-α: THR-α EC50 ÷ THR-β EC50. How it is done:
as §1

A short description of data set [3]: Pharmacokinetic test in ICR mice, plasma concentration by LC/MS/MS. It counts as in vivo. To be noted: for AUC(0-inf): read-out: Exposure AUCinf. How it is done:
• Polyethylene glycol 400 (PEG400), manufacturer: Chengdu Kelong Chemical Reagent Factory; • Hydroxypropyl 3-cyclodextrin (HP-β-CD), manufacturer: Shanghai Dibai Chemical Technology Co., Ltd.; • HPC LF, manufacturer: Chengdu Yuannuo Tiancheng Technology Co., Ltd.; • Heparin sodium, manufacturer: Chengdu Kelong Chemical Reagent Factory. • Experimental animals: ICR mice (Chengdu Dossy Experimental Animals CO., LTD.) 2) Experimental Method
Preparation of Test Compound Solution
IV group: 1.15 mg of test compound was accurately weighed, and then DMA (0.228 ml) was added to dissolve the compound, to which were successively added PEG400 (1.139 ml) and 0.1 M of phosphate buffer (5.012 ml). Finally, 40% HP-B-CD was added to the final volume of 11.39 ml. The solution was thoroughly mixed by ultrasonic vortex. A clear solution at the concentration of 0.1 mg/ml was prepared.
PO group: 5.06 mg of test compound was precisely weighed, and then 2% HPC LF (containing 0.1% Tween-80) was added to the final volume of 20.04 ml. The solution was mixed by ultrasound, to prepare a uniform suspension at the concentration of 0.25 mg/ml.
After fasting overnight (free drinking water), nine adult ICR mice (3 mice for each time point) were administered by injection via tail vein and by gavage, respectively. For IV group, 5 min, 15 min, 0.5 h, 1 h, 2 h, 4 h, 8 h, 12 h and 24 h after administration, 0.1 ml of blood was collected from the submandibular vein, centrifuged at 4° C. for 5 min to separate the plasma, and stored at −20° C. for detection. For PO group, before administration and 0.5 h, 1 h, 2 h, 4 h, 6 h, 8 h, 12 h and 24 h after administration, 0.1 ml of blood was collected from the submandibular vein, and the processing was the same as that of IV group.
Then, the concentration of original drug in plasma was determined by LC/MS/MS. The plasma concentration-time curve was plotted, and the main pharmacokinetic parameters were calculated with WinNonlin 6.3 software (see Table 2).

T1 sequence (P10827 163-410 isoform P10827-2 limits assumed, other chains not shown): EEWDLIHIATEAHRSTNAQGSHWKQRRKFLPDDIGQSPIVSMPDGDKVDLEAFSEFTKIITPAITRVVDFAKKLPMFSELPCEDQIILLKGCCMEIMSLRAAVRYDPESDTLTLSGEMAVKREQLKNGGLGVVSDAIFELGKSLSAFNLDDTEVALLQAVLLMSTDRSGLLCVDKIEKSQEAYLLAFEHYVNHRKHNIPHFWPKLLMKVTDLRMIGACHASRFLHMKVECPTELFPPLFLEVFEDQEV
T1 sequence (P19793 whole entry partner, other chains not shown, the tested form may be a part): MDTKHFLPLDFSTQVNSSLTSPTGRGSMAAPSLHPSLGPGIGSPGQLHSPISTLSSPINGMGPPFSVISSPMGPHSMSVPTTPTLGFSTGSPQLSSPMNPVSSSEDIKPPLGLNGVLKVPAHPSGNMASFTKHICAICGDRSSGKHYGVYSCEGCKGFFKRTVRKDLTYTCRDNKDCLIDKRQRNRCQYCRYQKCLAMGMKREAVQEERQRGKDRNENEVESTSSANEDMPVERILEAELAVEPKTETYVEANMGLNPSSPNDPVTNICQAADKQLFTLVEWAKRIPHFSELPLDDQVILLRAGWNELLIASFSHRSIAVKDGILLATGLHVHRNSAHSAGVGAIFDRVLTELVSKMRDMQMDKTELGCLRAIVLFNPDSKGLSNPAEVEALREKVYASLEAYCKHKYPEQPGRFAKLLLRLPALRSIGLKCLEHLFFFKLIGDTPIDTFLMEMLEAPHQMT
T2 sequence (P10828 217-461 limits assumed, other chains not shown): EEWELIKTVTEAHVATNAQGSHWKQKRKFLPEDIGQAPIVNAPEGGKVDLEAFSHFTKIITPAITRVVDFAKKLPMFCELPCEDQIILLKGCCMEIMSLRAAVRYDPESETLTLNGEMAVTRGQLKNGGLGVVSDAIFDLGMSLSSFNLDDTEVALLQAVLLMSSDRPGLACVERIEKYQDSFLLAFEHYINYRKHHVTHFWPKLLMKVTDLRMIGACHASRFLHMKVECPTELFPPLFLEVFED
T2 sequence (P19793 whole entry partner, other chains not shown, the tested form may be a part): as the sequence (P19793 whole entry partner, other chains not shown, the tested form may be a part) above

One may read the pEC50 as −log10 of the EC50, conventionally taken in molar units. With `CC(C)c1cc(Oc2c(Cl)cc(-n3nc(C#N)c(=O)[nH]c3=O)cc2Br)n[nH]c1=O` [Compound 1, 2-(3-bronco-5-chloro-4-((5-isopropyl-6-oxo-1,6-dihydropyridazin-3-yl)oxy)phenyl)-3,5-dioxo-2,3,4,5-tetrahydro-1,2,4-triazine-6-nitrile], in data set [1], the pEC50 is 5.99 and the “Agonistic activity for THR-α compared to control compound MGL-3196” value is reported as “significantly higher agonistic activities”. For the same molecule, in data set [2], the pEC50 is 7.24 and the “Agonistic activity for THR-β compared to control compound MGL-3196” value is “significantly higher agonistic activities”.
Broadly, the Tmax is the time at which the peak concentration occurs. Regarding `[2H]C([2H])([2H])C(c1cc(Oc2c(Cl)cc(-n3nc(C#N)c(=O)[nH]c3=O)cc2Br)n[nH]c1=O)C([2H])([2H])[2H]` [Compound 2, 2-(3-bromo-5-chloro-4-((5-di(trideuteromethyl)methyl-6-oxo-1,6-dihydropyridazine-3-yl)oxy)phenyl)-3,5-dioxo-2,3,4,5-tetrahydro-1,2,4-triazine-6-nitrile], the figures for the pEC50 in data set [1] and in data set [2] were 5.97 and 7.28, respectively. Besides, the AUC(0-inf) in data set [3] (ICR, mouse, plasma, dosage 2 mg/kg, route not given) came out at 9260 ng·h/mL. In addition, the half-life in data set [3] (ICR, mouse, plasma, dosage 2 mg/kg, route not given, read-out: Half-life T1/2 (converted)) is 5.25 h. In data set [3] (ICR, mouse, plasma, dosage 2 mg/kg, route not given, read-out: Peak concentration Cmax), the Cmax came to 960 ng/mL. For the same molecule, in data set [3] (ICR, mouse, plasma, dosage 2 mg/kg, route not given, read-out: Peak time Tmax), the Tmax amounted to 4 h. Besides, the “Half-life compared to MGL-3196” value in data set [3] (compound at a lower dose, in words) is given as “longer”.
As for `[2H]c1c(Oc2c(Cl)cc(-n3nc(C#N)c(=O)[nH]c3=O)cc2Br)n[nH]c(=O)c1C(C([2H])([2H])[2H])C([2H])([2H])[2H]` [Compound 3, 2-(3-bromo-5-chloro-4-((4-deutero-5-(1,1,1,3,3,3-hexadeuteropropyl-2-yl)-6-oxo-1,6-dihydropyrazin-3-yl)oxy)phenyl)-3,5-dioxy-2,3,4,5-tetrahydro-1,2,4-triazine-6-nitrile], in data set [1], the pEC50 was 5.88. In data set [2], the pEC50 is 7.22 and the “Agonistic activity for THR-β compared to control compound MGL-3196” value is reported as “significantly higher agonistic activities”.
`CC(C)c1cc(Oc2c(Br)cc(-n3nc(C#N)c(=O)[nH]c3=O)cc2Br)n[nH]c1=O` [Compound 13, 2-(3,5-Dibromo-4-((5-isopropyl-6-oxo-1,6-dihydropyridazin-3-yl)oxy)phenyl)-3,5-dioxy-2,3,4,5-tetrahydro-1,2,4-triazine-6-nitrile]: in data set [1], the negative logarithm of the EC50 (pEC50) is 6.10 and the “Agonistic activity for THR-α compared to control compound MGL-3196” value was “significantly higher agonistic activities”. Further, in data set [2], the negative logarithm of the EC50 (pEC50) was 7.52, the “Selectivity THR-β/THR-α” value stood at 27 and the “Agonistic activity for THR-β compared to control compound MGL-3196” value is recorded as “significantly higher agonistic activities”.
On to `[2H]C([2H])([2H])C(c1cc(Oc2c(Br)cc(-n3nc(C#N)c(=O)[nH]c3=O)cc2Br)n[nH]c1=O)C([2H])([2H])[2H]` [Compound 14], for which, in data set [1], the pEC50 is 6.49 and the “Agonistic activity for THR-α compared to control compound MGL-3196” value is “significantly higher agonistic activities”. Also, in data set [2], the negative-log EC50 (pEC50) was 7.57, the “Selectivity THR-β/THR-α” value is 12 and the “Agonistic activity for THR-β compared to control compound MGL-3196” value is “significantly higher agonistic activities”.
Turning to `[2H]c1c(Oc2c(Br)cc(-n3nc(C#N)c(=O)[nH]c3=O)cc2Br)n[nH]c(=O)c1C(C([2H])([2H])[2H])C([2H])([2H])[2H]` [Compound 15, 2-(3,5-dibromo-4-((6-oxo-5-(propan-2-yl-1,1,1,3,3,3-d6)-1,6-dihydropyridazin-3-yl-4-d)oxy)phenyl)-3,5-dioxy-2,3,4,5-tetrahydro-1,2,4-triazine-6-nitrile], in data set [1], the negative-log EC50 (pEC50) was 6.46 and the “Agonistic activity for THR-α compared to control compound MGL-3196” value is “significantly higher agonistic activities”. For the same molecule, in data set [2], the negative-log EC50 (pEC50) was 7.72, the “Selectivity THR-β/THR-α” value is listed as 18 and the “Agonistic activity for THR-β compared to control compound MGL-3196” value was “significantly higher agonistic activities”.
With `CC(C)c1cc(Oc2c(Cl)cc(-n3nc(C#N)c(=O)[nH]c3=O)cc2Cl)n[nH]c1=O` [MGL-3196, reference compound], the AUC(0-inf) in data set [3] (ICR, mouse, plasma, dosage 5 mg/kg, route not given) came to 9360 ng·h/mL. The “Peak time Tmax” value in data set [3] (dosage 5 mg/kg, route not given) is 2 h.

Values taken from US11926618B2, “Halogen-substituted phenylate compound and applications thereof” (HINOVA PHARMACEUTICALS INC., priority 2019, dated 2024).
